Key:
[1] = tested on: Hct116 cells with homozygous deletion of p53
Procedure: (§1) (a) Sensitivity of colon cancer cell lines to 5-FU. Cells were stained four days after addition of the drug. (b to e, g) Cytopathic effect assays using 10-fold dilutions of virus starting from a concentration of 10 pfu/cell. Fresh medium was added four days after infection and cells were stained 5 (SW480), 7 (Hct116 and Hct116^−/−), or 8 (HT29 and HLF) days post-infection. (f) 5-FC was added either immediately after infection (early, E) or four days after infection (late, L). Cells were stained 8 days after infection.
(§2) Cells in six-well plates were infected with ten-fold dilutions of virus in DMEM. Two hours after infection, the medium was replaced with complete medium containing or not 100 μg/ml of 5-fluorocytosine (Sigma, St. Louis, USA). Four days after infection, new medium was added. Late addition of 5-FC was performed at that time. After five to eight days (see legend to FIG. 4), the cells were fixed with 4% formaldehyde in PBS and stained with crystal violet. For the sensitivity to 5-fluorouracil (Sigma, St. Louis, USA), the drug was added at various concentrations for four days before staining with crystal violet.

[2] = tested on: SW480 cells
Procedure: as §1, §2

With `O=c1[nH]cc(F)c(=O)[nH]1` [5-FU, 5-fluorouracil] the “resistance of p53-deleted Hct116 cells to 5-FU relative to parental cells” value [1] was “only slightly more resistant than the parental cells” and the “resistance of SW480 cells to 5-FU relative to the other cell lines” value [2] was “at least 10 fold”.

— US20050175589A1, “Anti-neoplastic viral agents” (priority 2001, published 2005)
